Measurements as given in PubChem BioAssay AID1918937 (Molecular Pharmacology Branch, DTP, NCI, 2023).

Test system: 521955-158-R2-J5-PDC complex spheroid viability
Assay: Anticancer human tumor 521955-158-R2-J5-PDC patient-derived pancreatic carcinoma cell line growth inhibition
Conditions: for IC50: curve of first compound; for viability, T/C: stronger effect = lower value
Source text: Multicellular complex tumor spheroid response to LSD1 Inhibitor Iadademstat in combination with a variety of drugs and investigational agents in selected tumor cell lines
The current study was undertaken to assess response to LSD1 inhibitors in combination with standard-of-care drugs and investigational agents in solid tumor complex spheroid models as well as in the K-562 leukemia. Complex spheroids include a stromal component modeled by human endothelial cells (HUVEC) and fibroblasts modeled by human mesenchymal stem cells (MSCs). The concentration ranges selected for each drug and investigational agent were based upon clinically achievable concentrations if the clinical Cmax of the agent was known.
Compounds. The drugs and investigational agents used in this study are listed on Table 1. All of the agents used, including staurosporine (NSC755774) and gemcitabine (NSC613327), were obtained from the Developmental Therapeutics Program, NCI. FDA-approved anticancer drugs are available from the NCI at http://dtp.nci.nih.gov/branches/dscb/oncology_drugset_explanation.html. Drugs and investigational agents were >95% pure by proton nuclear magnetic resonance (NMR) and liquid chromatography/mass spectrometry (LC/MS). Stock solutions were prepared at 400x in DMSO, stored at -70 degrees C, and diluted in fresh medium prior to their use. The final concentration of DMSO in cell culture wells never exceeded 0.25% (v/v). The FDA-approved anticancer drug set is available from the Developmental Therapeutics Program at https://dtp.cancer.gov/organization/dscb/obtaining/available_plates.htm. All drugs and investigational agents were tested over a range starting from a high concentration at or near the clinical Cmax and decreasing in half-log increments. If the clinical Cmax for an agent had not been determined, the highest concentration tested was 10 microM.
Cell Lines. The patient-derived cancer cell (PDC) lines: 292921-168-R-J2-PDC, K24384-001-R-PDC, and 521955-158-R2-J5-PDC pancreatic carcinomas, 556581-035-R-J1 ovarian carcinoma, 324938-238-R-J1-PDC, 855422-203-R-J1-PDC and 883617-216-R-J1-PDC urothelial bladder carcinomas, 743489-274-T-PDC renal cell carcinoma, 138582-R-J1 Merkel cell tumor, K60290-347-R-J1 and K57222-313-R-J1-PDC glioblastomas, 653999-131-R-J2-PDC, LG0703-F948-PDC, and 349418-098-R-PDC non-small cell lung carcinomas, 885512-296-R-J2-PDC, 171881-019-R-J1-PDC breast carcinomas and 186277-243-T-J2-PDC and 233499-124-R-J2-PDC colon carcinomas were obtained from the NCI Patient-Derived Models Repository (PDMR, https://pdmr.cancer.gov). The established cell lines NCI/ADR-RES (RRID:CVCL_14520 and OVCAR-5 (RRID:CVCL_1628) ovarian carcinomas, 786-O (RRID:CVCL_1051) and A498 (RRID:CVCL_A498) renal cell carcinoma, NCI-H211 (ATCC, cat. CRL-5824; RRID:CVCL_1529), NCI-H196 (ATCC, cat. CRL-5823, RRID:CVCL_1509), SW 1271 (ATCC, cat. CRL-2177, RRID:CVCL_1716) and NCI-H1876 (ATCC, cat. CRL-5902, RRID:CVCL_1503) small cell lung carcinomas, MDA-MB-231 (RRID:CVCL_0062) and MDA-MB-468 (RRID:CVCL_0419)breast carcinomas (10-12). Pooled donor human umbilical vein endothelial cells (HUVEC, Lonza, cat. CC-2519) and human mesenchymal stem cells (hMSC, Lonza, cat. PT-2501) were purchased from Lonza (Walkersville, MD).
Cell Culture. All cells were maintained in an incubator at 37 degrees C and 5% CO2 with 95% humidity. The PDC lines were cultured according to standard operating procedures established by the NCI PDMR (https://pdmr.cancer.gov). Briefly all PDCs were thawed and cultured in Matrigel-coated flasks prepared with a working solution of 1X Ham's F-12 nutrient mix, without supplementation (Invitrogen, Waltham, MA, cat. 11765054), 100 U/mL penicillin-streptomycin (Invitrogen, cat. 15140122), and 2.5% Matrigel (Corning Inc., Corning, NY, cat. 354248) for the first three passages. […]
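Further: spheroids exposed to agents for seven days.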
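Wherever viability, T/C is given: percent of DMSO vehicle control luminescence viability.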

CC[C@@]1(O)C(=O)OCc2c1cc1n(c2=O)Cc2cc3c(CN(C)C)c(O)ccc3nc2-1 + NC1CC1c1ccc(-c2cccc(O)c2)cc1
IC50 (second compound 0.1 µM): 6.03 nM | IC50 (second compound 0.316 µM): 6.63 nM | IC50 (second compound 1 µM): 6.15 nM | IC50 (second compound 3.16 µM): 6.19 nM | IC50 (second compound 10 µM): 6.25 nM | viability, T/C (second compound 0.1 µM, first compound 0.000316 µM): 97.3% | viability, T/C (second compound 0.1 µM, first compound 0.001 µM): 106% | viability, T/C (second compound 0.1 µM, first compound 0.00316 µM): 77.3% | viability, T/C (second compound 0.1 µM, first compound 0.01 µM): 28.3% | viability, T/C (second compound 0.1 µM, first compound 0.0316 µM): 15.6% | viability, T/C (second compound 0.1 µM, first compound 0.1 µM): 11.7% | viability, T/C (second compound 0.316 µM, first compound 0.000316 µM): 94.8% | viability, T/C (second compound 0.316 µM, first compound 0.001 µM): 94.9% | viability, T/C (second compound 0.316 µM, first compound 0.00316 µM): 80.5% | viability, T/C (second compound 0.316 µM, first compound 0.01 µM): 33.1% | viability, T/C (second compound 0.316 µM, first compound 0.0316 µM): 14.6% | viability, T/C (second compound 0.316 µM, first compound 0.1 µM): 13.1% | viability, T/C (second compound 1 µM, first compound 0.000316 µM): 80.2% | viability, T/C (second compound 1 µM, first compound 0.001 µM): 93.3% | viability, T/C (second compound 1 µM, first compound 0.00316 µM): 78.2% | viability, T/C (second compound 1 µM, first compound 0.01 µM): 29.1% | viability, T/C (second compound 1 µM, first compound 0.0316 µM): 16.4% | viability, T/C (second compound 1 µM, first compound 0.1 µM): 12.7% | viability, T/C (second compound 3.16 µM, first compound 0.000316 µM): 83% | viability, T/C (second compound 3.16 µM, first compound 0.001 µM): 86.8% | viability, T/C (second compound 3.16 µM, first compound 0.00316 µM): 71.9% | viability, T/C (second compound 3.16 µM, first compound 0.01 µM): 33.8% | viability, T/C (second compound 3.16 µM, first compound 0.0316 µM): 18.5% | viability, T/C (second compound 3.16 µM, first compound 0.1 µM): 12.2% | viability, T/C (second compound 10 µM, first compound 0.000316 µM): 103% | viability, T/C (second compound 10 µM, first compound 0.001 µM): 92.3% | viability, T/C (second compound 10 µM, first compound 0.00316 µM): 68.7% | viability, T/C (second compound 10 µM, first compound 0.01 µM): 37.7% | viability, T/C (second compound 10 µM, first compound 0.0316 µM): 21.1% | viability, T/C (second compound 10 µM, first compound 0.1 µM): 19.7%
